Measurements from patent US8497256B2, “Formulations and uses of 2-hydroxy-5-phenylazobenzoic acid derivatives for the treatment of males” (Salix Pharmaceuticals, Ltd, priority 2010, dated 2013).
Where a name gives a salt, the structure may show the parent alone. Read-outs that look alike come from different tables or passages of the source. Marks after values point to notes of the source that are not given here. Each block holds one molecule with its values, some of them ahead of it.

Tests used:
[1] = clinical
From the text: Before further description and in order that the invention may be more readily understood, certain terms are first defined and collected here for convenience. Common pharmacologic term used herein refer are as follows: Tmax (time to maximum concentration); Cmax (observed maximum concentration); kel (slope of terminal linear portion of concentration/time curve); T1/2 (half-life of balsalazide calculated as: 0.693/Kel); AUC(last) (area under the curve to last quantifiable concentration as measured by the trapezoidal rule); and AUC(inf) (the AUC value extrapolated to infinity calculated as: AUC(inf)=AUC(last)+C(t)last/Kel where C(t) last is the last measurable concentration).

[2] = Food effect on pharmacokinetics, single 3.3 g dose of GIAZO; settings: single dose 3.3 g GIAZO; for Change (reduction) of AUC0-∞ under fed conditions / Reduction of mean Cmax under fed conditions: high-fat meal vs fasted; for Tmax: human, plasma, po, 3.3 g, Median Tmax
[3] = test system: human plasma proteins
[4] = molecular target: T1, CYP2C19 (Homo sapiens, UniProt P33261); settings: microsomes
T1 sequence (P33261 whole entry): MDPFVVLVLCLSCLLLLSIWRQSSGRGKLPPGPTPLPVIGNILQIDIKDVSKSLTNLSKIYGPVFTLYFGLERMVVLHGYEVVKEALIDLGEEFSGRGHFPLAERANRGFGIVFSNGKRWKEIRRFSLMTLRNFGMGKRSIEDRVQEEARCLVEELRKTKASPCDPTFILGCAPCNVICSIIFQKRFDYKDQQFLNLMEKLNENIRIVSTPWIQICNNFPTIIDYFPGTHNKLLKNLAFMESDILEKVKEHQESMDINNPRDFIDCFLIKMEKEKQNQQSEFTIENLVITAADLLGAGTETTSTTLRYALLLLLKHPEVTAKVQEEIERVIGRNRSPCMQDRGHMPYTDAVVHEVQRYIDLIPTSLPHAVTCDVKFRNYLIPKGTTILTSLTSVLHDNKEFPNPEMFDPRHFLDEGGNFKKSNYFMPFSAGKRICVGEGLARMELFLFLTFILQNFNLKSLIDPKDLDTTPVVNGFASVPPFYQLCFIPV

[5] = human, in vivo, po, 3.3 g
[6] = molecular target: T2, CYP2C9 (Homo sapiens, UniProt P11712); settings: microsomes
T2 sequence (P11712 whole entry): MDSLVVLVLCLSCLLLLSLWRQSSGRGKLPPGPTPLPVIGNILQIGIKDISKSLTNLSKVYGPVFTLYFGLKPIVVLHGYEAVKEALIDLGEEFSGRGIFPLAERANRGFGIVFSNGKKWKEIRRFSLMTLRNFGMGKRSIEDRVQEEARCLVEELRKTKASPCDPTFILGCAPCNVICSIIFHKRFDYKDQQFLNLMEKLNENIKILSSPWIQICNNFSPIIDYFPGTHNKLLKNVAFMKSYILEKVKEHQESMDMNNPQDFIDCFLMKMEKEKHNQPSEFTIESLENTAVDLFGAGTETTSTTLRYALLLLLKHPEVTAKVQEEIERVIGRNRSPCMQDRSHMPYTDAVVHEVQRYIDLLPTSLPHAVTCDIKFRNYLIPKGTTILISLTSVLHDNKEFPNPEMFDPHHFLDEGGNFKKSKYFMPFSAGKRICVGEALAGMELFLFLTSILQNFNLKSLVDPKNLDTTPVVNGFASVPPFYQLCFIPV

[7] = clinical; settings: human, in vivo, po, 3.3 g, Median Tmax
[8] = molecular target: T3, CYP1A2 (Homo sapiens, UniProt P05177); settings: microsomes
T3 sequence (P05177 1-516): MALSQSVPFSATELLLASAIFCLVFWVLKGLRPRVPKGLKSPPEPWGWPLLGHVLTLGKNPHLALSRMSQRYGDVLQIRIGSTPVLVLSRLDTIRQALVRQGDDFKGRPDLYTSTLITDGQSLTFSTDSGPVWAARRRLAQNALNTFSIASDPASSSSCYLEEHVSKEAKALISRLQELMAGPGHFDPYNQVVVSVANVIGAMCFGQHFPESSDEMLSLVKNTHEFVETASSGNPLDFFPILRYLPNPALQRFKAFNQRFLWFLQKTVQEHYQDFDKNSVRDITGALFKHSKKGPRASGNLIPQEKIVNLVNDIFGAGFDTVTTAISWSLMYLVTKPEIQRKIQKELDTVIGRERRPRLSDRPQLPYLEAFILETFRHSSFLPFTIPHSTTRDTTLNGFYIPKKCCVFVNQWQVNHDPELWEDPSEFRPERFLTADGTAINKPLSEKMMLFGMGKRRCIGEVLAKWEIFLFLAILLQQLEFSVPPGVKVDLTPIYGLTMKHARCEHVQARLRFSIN

[9] = molecular target: T4, CYP2D6 (Homo sapiens, UniProt P10635); settings: microsomes
T4 sequence (P10635 whole entry): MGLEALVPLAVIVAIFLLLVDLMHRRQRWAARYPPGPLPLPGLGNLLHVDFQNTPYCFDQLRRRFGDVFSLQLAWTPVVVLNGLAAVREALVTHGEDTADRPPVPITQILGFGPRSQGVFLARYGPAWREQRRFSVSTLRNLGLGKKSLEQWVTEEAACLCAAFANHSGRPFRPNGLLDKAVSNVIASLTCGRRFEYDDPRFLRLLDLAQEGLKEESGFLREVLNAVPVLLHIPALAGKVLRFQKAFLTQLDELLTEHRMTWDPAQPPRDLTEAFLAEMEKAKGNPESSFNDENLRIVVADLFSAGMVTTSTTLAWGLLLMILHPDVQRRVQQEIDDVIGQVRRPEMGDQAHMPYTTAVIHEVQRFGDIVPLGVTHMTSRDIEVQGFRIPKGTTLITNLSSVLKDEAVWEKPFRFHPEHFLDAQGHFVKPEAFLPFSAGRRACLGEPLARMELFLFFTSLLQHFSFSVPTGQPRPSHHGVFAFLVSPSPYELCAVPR

[10] = test system: CYP3A4/5; settings: microsomes
[11] = test system: human plasma proteins; experiment: Plasma protein binding
[12] = test system: mouse lymphoma cell (L5178Y/TK+/−); experiment: Mouse lymphoma cell forward mutation test; assay type: cell-based; settings: in vitro
From the text: (§1) For a 50 kg person of average height this dose represents 2.5 times the recommended human dose on a body surface area basis. Balsalazide disodium was not genotoxic in the following in vitro or in vivo tests: Ames test, human lymphocyte chromosomal aberration test, and mouse lymphoma cell (L5178Y/TK+/−) forward mutation test, or mouse micronucleus test. However, it was genotoxic in the in vitro Chinese hamster lung cell (CH V79/HGPRT) forward mutation test.
(§2) The compound 4-aminobenzoyl-β-alanine, a metabolite of balsalazide disodium, was not genotoxic in the Ames test and the mouse lymphoma cell (L5178Y/TK+/−) forward mutation test but was positive in the human lymphocyte chromosomal aberration test. N-acetyl-4-aminobenzoyl-β-alanine, a conjugated metabolite of balsalazide disodium, was not genotoxic in Ames test, the mouse lymphoma cell (L5178Y/TK+/−) forward mutation test, or the human lymphocyte chromosomal aberration test.

[13] = Ames test; assay type: cell-based; settings: in vitro
From the text: as §1, §2

[14] = cited from earlier work
[15] = test system: human lymphocyte; experiment: Human lymphocyte chromosomal aberration test; assay type: cell-based; settings: in vitro
From the text: as §1, §2

[16] = Mouse micronucleus test; settings: in vivo
From the text: as §1

[17] = Reproduction / fertility studies in rats; assay type: in vivo, rat; settings: oral doses up to 2 g/kg/day
From the text: (§3) There are, however, no adequate and well-controlled studies in pregnant women. Because animal reproduction studies are not always predictive of human response, this drug should be used during pregnancy only if clearly needed.
as §2

[18] = Solubility of balsalazide disodium; assay type: physicochemical
From the text: It is a stable, odorless, orange to yellow, microcrystalline powder. […] Balsalazide disodium has the chemical name (E)-5-[[-4-[[(2-carboxyethyl) amino]carbonyl]phenyl]azo]-2-hydroxybenzoic acid, disodium salt, dihydrate (Molecular Weight: 437.32; Molecular Formula: C17H13N3O6Na2.2H2O).
Each GIAZO tablet contains 1.1 g of balsalazide disodium, film-coated for oral delivery. Balsalazide disodium is insoluble in acid, but soluble at a pH of at least 4.5. […] The sodium content of each tablet is approximately 126 mg.
Mesalamine is 5-aminosaliacylic acid and appears to act topically.

[19] = 24-month rat carcinogenicity study; assay type: in vivo, rat (Sprague Dawley); settings: 24 months, oral (dietary), doses up to 2 g/kg/day
From the text: as §1

[20] = Reproduction studies in rabbits; assay type: in vivo, rabbit; settings: oral doses up to 2 g/kg/day
From the text: as §3

[21] = test system: Chinese hamster lung cell (CH V79/HGPRT); assay type: cell-based
From the text: as §1

[22] = test system: CYP3A4/5; experiment: CYP inhibition in human liver microsomes
[23] = molecular target: T3, CYP1A2; experiment: CYP inhibition in human liver microsomes
[24] = molecular target: T1, CYP2C19; experiment: CYP inhibition in human liver microsomes
[25] = molecular target: T4, CYP2D6; experiment: CYP inhibition in human liver microsomes
[26] = molecular target: T2, CYP2C9; experiment: CYP inhibition in human liver microsomes
[27] = human, in vivo, Terminal half-life
[28] = repeated dose (Q12) 3.3 g as GIAZO, N = 18
[29] = single dose 3.3 g as GIAZO, N = 18

AUC(0-inf) ([1]; human, in vivo): 8500 ng·h/mL
AUCtau, mean ([1]; human, in vivo): 2200 ng·h/mL
Cmax, mean ([1]; human, in vivo): 500 ng/mL
Tmax ([1]; human, in vivo): 12 h
half-life ([1]; human, in vivo, T1/2, mean): 9.5 h
half-life [1, 27]: 9.5 h
Change (reduction) of AUC0-∞ under fed conditions [2]: 46%
Reduction of mean Cmax under fed conditions [2]: 65%
Binding to plasma proteins [3]: 43%
Inhibition of CYP2C19 [4]: not shown to inhibit
Median Tmax [5]: 24 h
Inhibition of CYP2C9 [6]: not shown to inhibit
Tmax [7]: 12 h
Inhibition of CYP1A2 [8]: not shown to inhibit
Inhibition of CYP2D6 [9]: not shown to inhibit
Compound: Nc1ccc(O)c(C(=O)O)c1 [5-ASA, 5-aminosalicylic acid]

Inhibition of CYP3A4/5 [10]: not shown to inhibit
AUC(0-inf) ([1]; human, in vivo): 1400 ng·h/mL
T1/2, mean ([1]; human, in vivo): 1.9 h
Tmax ([1]; human, in vivo): 0.5 h
AUC ([1]; human, in vivo, AUCtau, mean): 1300 ng·h/mL
Cmax ([1]; human, in vivo, Cmax, mean): 300 ng/mL
half-life [1, 27]: 1.9 h
Change (reduction) of AUC0-∞ under fed conditions [2]: No significant changes
Reduction of mean Cmax under fed conditions [2]: 44%
Tmax ([2]; fasted): 0.5 h
Tmax ([2]; with a high fat meal): 2 h
Binding to plasma proteins [11]: ≥ 99%
Inhibition of CYP2C19 [4]: not shown to inhibit
Inhibition of CYP2C9 [6]: not shown to inhibit
Inhibition of CYP1A2 [8]: not shown to inhibit
Inhibition of CYP2D6 [9]: not shown to inhibit
Compound: O=C(O)CCNC(=O)c1ccc(/N=N/c2ccc(O)c(C(=O)O)c2)cc1 [balsalazide]

Inhibition of CYP3A4/5 [10]: not shown to inhibit
Inhibition of CYP2C19 [4]: not shown to inhibit
Inhibition of CYP2C9 [6]: not shown to inhibit
Inhibition of CYP1A2 [8]: not shown to inhibit
Inhibition of CYP2D6 [9]: not shown to inhibit
Compound: Nc1ccc(C(=O)NCCC(=O)O)cc1 [4-ABA, 4-aminobenzoyl-β-alanine]
Genotoxicity, mouse lymphoma cell (L5178Y/TK+/−) forward mutation test [12]: not genotoxic
Genotoxicity, Ames test [13]: not genotoxic
Absorption of the released carrier component ([14]; largely eliminated in the feces): poorly absorbed
Genotoxicity, human lymphocyte chromosomal aberration test [15]: positive

Solubility in acid ([18]; acid): insoluble
Solubility in all other organic solvents ([18]; all other organic solvents): practically insoluble
Solubility in methanol and ethanol ([18]; methanol and ethanol): sparingly soluble
pH at which soluble ([18]; pH): at least 4.5
Water solubility ([18]; water): highly water-soluble
Solubility in water and isotonic saline ([18]; water and isotonic saline): freely soluble
Compound: O=C(O)CCNC(=O)c1ccc(/N=N/c2ccc(O)c(C(=O)O)c2)cc1 [balsalazide disodium, (E)-5-[[-4-[[(2-carboxyethyl)amino]carbonyl]phenyl]azo]-2-hydroxybenzoic acid, disodium salt, dihydrate]
Genotoxicity, mouse micronucleus test [16]: not genotoxic
Effect on fertility and reproductive performance [17]: no effect on fertility and reproductive performance
Impaired fertility or harm to the fetus [17]: no evidence of impaired fertility or harm to the fetus
Tumorigenicity [19]: not tumorigenic
Genotoxicity, mouse lymphoma cell (L5178Y/TK+/−) forward mutation test [12]: not genotoxic
Impaired fertility or harm to the fetus [20]: no evidence of impaired fertility or harm to the fetus
Genotoxicity, Ames test [13]: not genotoxic
Genotoxicity, human lymphocyte chromosomal aberration test [15]: not genotoxic
Genotoxicity, Chinese hamster lung cell (CH V79/HGPRT) forward mutation test [21]: genotoxic

Compound: CC(=O)Nc1ccc(O)c(C(=O)O)c1 [N-Ac-5-ASA, N-acetyl-5-aminosalyicylic acid]
Inhibition of CYP3A4/5 [22]: not shown to inhibit
Inhibition of CYP1A2 [23]: not shown to inhibit
Terminal half-life [1]: 10.5 h
T1/2, mean ([1]; repeated dose (Q12) 3.3 g as GIAZO): 7.2 h
AUCtau, mean [1, 28]: 21000 ng·h/mL
Cmax, mean [1, 28]: 2200 ng/mL
Tmax, median [1, 28]: 10 h
Accumulation ratio based on AUC ([1]; repeated doses of 3.3 g GIAZO every 12 hours, steady-state vs single dose): 3.6
Median time of peak plasma concentration (Tmax) ([1]; single dose 3.3 g GIAZO, 18 healthy subjects): 12 h
AUC0-∞, mean [1, 29]: 33500 ng·h/mL
AUCtau, mean [1, 29]: 5900 ng·h/mL
Cmax, mean [1, 29]: 1200 ng/mL
Tmax, median [1, 29]: 12 h
T1/2, mean ([1]; single dose 3.3 g as GIAZO, N = 17 where marked b): 10.4^b hour
Mean % of dose excreted in urine over 12 hours ([1]; steady-state, 3.3 g GIAZO every 12 hours, healthy volunteers): 15.6%
Median Tmax ([2]; fasted): 12 h
Change (reduction) of AUC0-∞ under fed conditions [2]: 17%
Reduction of mean Cmax under fed conditions [2]: 48%
Median Tmax ([2]; with a high fat meal): 24 h
Binding to plasma proteins [11]: 78%
Inhibition of CYP2C19 [24]: not shown to inhibit
Percent of the oral dose measured in the blood / systemically absorbed ([14]; oral dose): ~12%
Inhibition of CYP2D6 [25]: not shown to inhibit
Inhibition of CYP2C9 [26]: not shown to inhibit
